Measured values reported in US12102637B2, “Pharmaceutical formulations for treating endometriosis, uterine fibroids, polycystic ovary syndrome or adenomyosis” (AbbVie Inc., priority 2017, dated 2024).

Test: Drug interaction studies: co-administered drug in the presence of elagolix
Details: for direction of the change in AUC of concomitant drug: co-administered with ORILISSA (elagolix)
[1] = Rosuvastatin 20 mg once daily, elagolix 300 mg twice daily × 7 days, N 10
[2] = Digoxin 0.5 mg single dose, elagolix 200 mg twice daily × 10 days, N 11
[3] = Ethinyl estradiol 35 mcg and triphasic norgestimate 0.18/0.215/0.25 mg once daily, elagolix 150 mg once daily, N 21
[4] = Norethindrone 0.35 mg once daily × 112 days, elagolix 150 mg once daily × 56 days, N 32
[5] = Midazolam 2 mg single dose, elagolix 150 mg once daily × 13 days, N 11
[6] = Midazolam 2 mg single dose, elagolix 300 mg twice daily × 11 days, N 20

Protocol: Drug interaction studies were performed with elagolix and other drugs that are likely to be co-administered and with drugs commonly used as probes for pharmacokinetic interactions.

CC(C)c1nc(N(C)S(C)(=O)=O)nc(-c2ccc(F)cc2)c1/C=C/[C@@H](O)C[C@@H](O)CC(=O)O [Rosuvastatin]
AUC Ratio (with elagolix vs medication alone) [1]: 0.60 | Cmax Ratio (with elagolix vs medication alone) [1]: 0.99 | direction of the change in AUC of concomitant drug: ↓ rosuvastatin

C[C@H]1O[C@@H](O[C@H]2[C@@H](O)C[C@H](O[C@H]3[C@@H](O)C[C@H](O[C@H]4CC[C@@]5(C)[C@H](CC[C@@H]6[C@@H]5C[C@@H](O)[C@]5(C)[C@@H](C7=CC(=O)OC7)CC[C@]65O)C4)O[C@@H]3C)O[C@@H]2C)C[C@H](O)[C@@H]1O [Digoxin]
AUC Ratio (with elagolix vs medication alone) [2]: 1.26 | Cmax Ratio (with elagolix vs medication alone) [2]: 1.71 | direction of the change in AUC of concomitant drug: ↑ digoxin

C#C[C@]1(O)CC[C@H]2[C@@H]3CCc4cc(O)ccc4[C@H]3CC[C@@]21C [Ethinyl Estradiol]
AUC Ratio (with elagolix vs medication alone) [3]: 1.30 | Cmax Ratio (with elagolix vs medication alone) [3]: 1.15

C#C[C@]1(O)CC[C@H]2[C@@H]3CCC4=CC(=O)CC[C@@H]4[C@H]3CC[C@@]21C [Norethindrone]
AUC Ratio (with elagolix vs medication alone) [4]: 0.88 | Cmax Ratio (with elagolix vs medication alone) [4]: 0.95

C#C[C@]1(O)CC[C@H]2[C@@H]3CCC4=CC(=NO)CC[C@@H]4[C@H]3CC[C@@]21CC (mixture of isomers) [Norelgestromin]
AUC Ratio (with elagolix vs medication alone) [3]: 0.85 | Cmax Ratio (with elagolix vs medication alone) [3]: 0.87

Cc1ncc2n1-c1ccc(Cl)cc1C(c1ccccc1F)=NC2 [Midazolam]
AUC Ratio (with elagolix vs medication alone) [5]: 0.65 | Cmax Ratio (with elagolix vs medication alone) [5]: 0.81 | AUC Ratio (with elagolix vs medication alone) [6]: 0.46 | Cmax Ratio (with elagolix vs medication alone) [6]: 0.56 | direction of the change in AUC of concomitant drug: ↓ midazolam

C#CC1(O)CC[C@H]2[C@@H]3CCC4=CC(=O)CC[C@@H]4[C@H]3CC[C@@]21CC (mixture of isomers) [Norgestrel]
AUC Ratio (with elagolix vs medication alone) [3]: 0.92 | Cmax Ratio (with elagolix vs medication alone) [3]: 0.89
